{"source": "patent US20080025931A1", "about": "“Cosmetic method for limiting age-related hollowing of the face” (priority 2006, published 2008)", "key": {"[1]": {"test_system": "human adipocytes obtained from the abdominal region", "test": "Stimulation of lipogenesis by measuring the incorporation of 14C-acetate into the lipids", "assay_type": "cell-based", "settings": "for % control (incorporation of 14C-acetate into lipids): 1 h preincubation, 4 h treatment", "procedure": "The activity of a Vitreoscilla filiformis cell extract as prepared according to Example 1 on a local adipose development was evaluated. The study was carried out on human adipocytes obtained from the abdominal region. Various parameters representing the adipocyte physiology were analysed: • a) stimulation of lipogenesis by measurement of the incorporation of ^14C-acetate into lipids; • b) stimulation of adipocyte differentiation by measuring the expression of adipocyte differentiation markers: LPL (lipoprotein lipase, involved in the storage of fat; • c) monitoring of the enrichment in lipids by specific staining (AdipoRed™) and imaging; • d) monitoring of the cell size/size distribution by flow cytometry and fluorescent labelling (AdipoRed™). Stimulation of Lipogenesis by Measuring the Incorporation of ^14C-acetate into the Lipids The adipocytes were isolated after an abdominal plastic surgery operation and then incubated in the presence of collagenase and then washed and taken up in test medium. This test medium contained: • product to be tested (Vitreoscilla filiformis extract at various concentrations/theophylline 1 mM/isoproterenol 1 μM), or nothing for the control • bicarbonate 1.87 mg/ml • penicillin/streptomycin 25 IU/ml/25 μg/ml • glutamine 2 mM • MEM without phenol red qs 100% (v/v) supplemented with lipid-free bovine serum albumin at 0.5% (w/v). The products to be tested and the adipocytes were preincubated at 37° C. for 1 h, and then ^14C-acetate was added at 50 μCi/ml. After 4 h of treatment, the lipids were extracted with methanol/chloroform/water and the incorporated radioactivity was counted by liquid scintillation."}, "[2]": {"test_system": "LPL (lipoprotein lipase)", "test": "Stimulation of adipocyte differentiation: expression of LPL marker by RT-Q-PCR in pre-adipocytes", "assay_type": "cell-based, human", "settings": "25 ng/ml; 4 days; control differentiated cells = 100", "procedure": "The activity of a Vitreoscilla filiformis cell extract as prepared according to Example 1 on a local adipose development was evaluated. The study was carried out on human adipocytes obtained from the abdominal region. Various parameters representing the adipocyte physiology were analysed: • a) stimulation of lipogenesis by measurement of the incorporation of ^14C-acetate into lipids; • b) stimulation of adipocyte differentiation by measuring the expression of adipocyte differentiation markers: LPL (lipoprotein lipase, involved in the storage of fat; • c) monitoring of the enrichment in lipids by specific staining (AdipoRed™) and imaging; • d) monitoring of the cell size/size distribution by flow cytometry and fluorescent labelling (AdipoRed™). […]\nAt the end of the treatment, the supernatants were removed and the cells rinsed in PBS and a volume of 300 μl of Tri-Reagent was added to each well. The expression of the LPL marker was evaluated by RT-Q-PCR on messenger RNAs extracted from the cellular lawns of each treatment. […]\nThe incorporation of fluorescence into the amplified DNA was measured continuously during the PCR cycles. A relative expression value was evaluated for the LPL marker, expressed in arbitrary units according to the following formula: (½^number of cycles)×10^6\nThe results are expressed as % relative expression compared with the control."}, "[3]": {"test_system": "Normal human pre-adipocytes", "test": "Cell size/size distribution by flow cytometry and AdipoRed fluorescent labelling", "assay_type": "cell-based", "settings": "differentiated cells; 25 ng/ml", "procedure": "(§1) Normal human pre-adipocytes were cultured in PGM growth medium at 37° C. and 5% CO2 until confluent. At confluence (D0), the cells were placed in differentiation medium (series 1, differentiated cells) or normal growth medium (series 2, undifferentiated cells), containing or not containing (control) the test products or the reference (TNFα, differentiation inhibitor). The cells were then incubated at 37° C. and 5% CO2 for 4 days.\nMonitoring of the Cell Size/Size Distribution by Flow Cytometry and AdipoRed™ Fluorescent Labelling\nAt the end of the treatments, the cells were rinsed in PBS and then the intracellular lipids were stained with AdipoRed from BioWhittaker.\nAt the end of the incubation, the cells were rinsed, trypsinized and then analysed by flow cytometry. The differentiation of the pre-adipocytes manifested itself at the morphological level by an increase in the number of intracytoplasmic lipid vesicles and an increase in the size of the cells.\n(§2) The results are expressed as % increase relative to the control."}, "[4]": {"test_system": "Normal human pre-adipocytes", "test": "Enrichment with lipids by AdipoRed staining and imaging (Spectramax reader)", "assay_type": "cell-based", "settings": "differentiated cells, 25 ng/ml", "procedure": "as §1\nMonitoring of the Enrichment with Lipids by Specific Staining (AdipoRed™) and Imaging\nAt the end of the treatments, the cells were rinsed in PBS and then the intracellular lipids were stained with AdipoRed from BioWhittaker. The stained cells were observed by optical microscopy, with the Spectramax reader.\nas §2"}}}
{"molecule": "C/C=C/C/C=C/CCC(=O)[C@H]1O[C@H]1C(N)=O", "note": "[Cerulenin]", "values": [{"measurement": "% control (incorporation of 14C-acetate into lipids)", "setting": "[1]; 20 μM", "value": 34, "unit": "% control"}, {"measurement": "incorporation of acetate into lipids (in words)", "setting": "[1]; tested at 0.02 mM", "value": "significantly inhibited"}]}
{"molecule": "CC(C)NCC(O)c1ccc(O)c(O)c1", "note": "(stereo not shown) [Isoproterenol]", "values": [{"measurement": "% control (incorporation of 14C-acetate into lipids)", "setting": "[1]; 1 μM", "value": 3400, "unit": "% control"}]}
{"molecule": "TNFα", "values": [{"measurement": "LPL, % relative expression compared with the control", "setting": "[2]", "value": 111, "unit": "%"}, {"measurement": "% control (AdipoRed measurement, flow cytometry)", "setting": "[3]", "value": 80, "unit": "% control"}, {"measurement": "lipid level (in words)", "setting": "[4]", "value": "reduced the lipid level"}, {"measurement": "% control (intracellular lipids, AdipoRed, Spectramax)", "setting": "[4]; 4 days", "value": 83, "unit": "% control"}]}
